Earlier results in patent US5484785A, “Salts of a quinolone-carboxylic acid” (Cheil Foods & Chemicals, Inc., priority 1992, dated 1996).

Key:
[1] = tested on: bacteria

methanesulfonate
pH of known Ciprofloxacin salts (in words) (solution): very low value of pH

O=C(O)c1cn(C2CC2)c2cc(N3CCNCC3)c(F)cc2c1=O [Ciprofloxacin, 1-cyclopropyl-6-fluoro-1,4-dihydro-4-oxo-7-(1-piperazinyl)-quinoline-3-carboxylic acid]
Antibacterial activities (in words) [1]: potent antibacterial activities

O=C(O)c1cn(C2CC2)c2cc(N3CCNCC3)c(F)cc2c1=O [Ciprofloxacin lactate]
Precipitation in injection/solution (in words) (lactate: contained in the injection in an excessive amount): tends to occur precipitation in an injection
